# Test results reported in ChEMBL document CHEMBL4382234, “Fluoroquinolone-isatin hybrids and their biological activities” (Eur J Med Chem, 2019).
# Experiments:
# [1] = system: Mycobacterium tuberculosis; test: Antitubercular activity against Mycobacterium tuberculosis H37Rv by microplate alamar blue assay; assay type: functional
# [2] = system: Mycobacterium tuberculosis; test: Antitubercular activity against Mycobacterium tuberculosis infected in IFNgamma-deficient C57BL/6 mouse assessed bacterial load in lung at 25 mg/kg administered once daily for 8 days measured 28 days post infection; assay type: functional
# [3] = system: Mycobacterium tuberculosis; test: Antitubercular activity against Mycobacterium tuberculosis infected in IFNgamma-deficient C57BL/6 mouse assessed bacterial load in spleen at 25 mg/kg administered once daily for 8 days measured 28 days post infection; assay type: functional
# Escherichia coli [4] = test: Antibacterial activity against Escherichia coli NCTC 10418 infected in po dosed CF mouse measured after 1 week; assay type: functional; conditions: NCTC 10418, po, 168 h
# Escherichia coli [5] = test: Potency index, ratio of norfloxacin ED50 to test compound ED50 for antibacterial activity against Escherichia coli NCTC 10418 infected in po dosed CF mouse; assay type: functional
# [6] = system: Human immunodeficiency virus 1; test: Antiviral activity against HIV1 3B infected in human MT4 cells; assay type: functional, organism-based
# [7] = system: Mycobacterium tuberculosis; test: Antimycobacterial activity against Mycobacterium tuberculosis H37Rv; assay type: functional
# SW480 = test: Anticancer activity against human SW480 cells after 48 hrs by MTT assay; assay type: functional, cell-based; conditions: SW480, 48 h
# HeLa = test: Anticancer activity against human HeLa cells after 48 hrs by MTT assay; assay type: functional, cell-based
# A549 = test: Anticancer activity against human A549 cells after 48 hrs by MTT assay; assay type: functional, cell-based; conditions: A549, 48 h
# HepG2 = test: Anticancer activity against human HepG2 cells after 48 hrs by MTT assay; assay type: functional, cell-based; conditions: HepG2, 48 h
# [8] = system: Mycobacterium tuberculosis; test: Antimycobacterial activity against Mycobacterium tuberculosis H37Rv after 3 to 7 days by rapid direct susceptibility test; assay type: functional
# [9] = system: Mycobacterium tuberculosis; test: Potency index, ratio of rifampicin MIC to test compound MIC for Mycobacterium tuberculosis H37Rv; assay type: functional
# [10] = system: Mycobacterium tuberculosis; test: Potency index, ratio of isoniazid MIC to test compound MIC for Mycobacterium tuberculosis H37Rv; assay type: functional
# [11] = system: Human immunodeficiency virus 1; test: Antiviral activity against HIV1 3B infected in human MT4 cells after 5 days by spectrophotometric method; assay type: functional, organism-based; conditions: Human immunodeficiency virus 1, 3B, MT4, 120 h
# Salmonella typhi = test: Antibacterial activity against Salmonella typhi by agar dilution method; assay type: functional, Salmonella enterica subsp. enterica serovar Typhi; conditions: Salmonella enterica
# Escherichia coli [12] = test: Antibacterial activity against Escherichia coli by agar dilution method; assay type: functional
# Vibrio cholerae = test: Antibacterial activity against Vibrio cholerae by agar dilution method; assay type: functional
# Staphylococcus aureus = test: Antibacterial activity against Staphylococcus aureus by agar dilution method; assay type: functional
# [13] = system: Staphylococcus epidermidis; test: Antibacterial activity against Staphylococcus epidermidis by agar dilution method; assay type: functional
# Klebsiella pneumoniae = test: Antibacterial activity against Klebsiella pneumoniae by agar dilution method; assay type: functional
# Pseudomonas aeruginosa = test: Antibacterial activity against Pseudomonas aeruginosa by agar dilution method; assay type: functional
# Shigella flexneri = test: Antibacterial activity against Shigella flexneri by agar dilution method; assay type: functional
# Citrobacter freundii = test: Antibacterial activity against Citrobacter freundii by agar dilution method; assay type: functional
# [14] = Toxicity in po dosed CF mouse measured after 1 week; assay type: organism-based; conditions: in vivo
# [15] = system: Mycobacterium tuberculosis; test: Potency index, ratio of gatifloxacin MIC to test compound MIC for Mycobacterium tuberculosis H37Rv; assay type: functional
smiles,measurement,setting,value
COc1cc(Cc2cnc(/N=C3\C(=O)N(CN4CCN(c5cc6c(cc5F)c(=O)c(C(=O)O)cn6C5CC5)CC4)c4ccc(F)cc43)nc2N)cc(OC)c1OC,MIC,[1],0.78 µg/mL
same,Activity,[2],5.26 log10CFU
same,Activity,[3],4.08 log10CFU
CCn1cc(C(=O)O)c(=O)c2cc(F)c(N3CCN(CN4C(=O)/C(=N\c5ncc(Cc6cc(OC)c(OC)c(OC)c6)c(N)n5)c5cc(Br)ccc54)CC3)cc21,ED50,Escherichia coli [4],1.62 mg/kg
same,Ratio,Escherichia coli [5],3.7
COc1c(N2CCN(CN3C(=O)/C(=N\c4ccc(S(=O)(=O)Nc5nc(C)cc(C)n5)cc4)c4cc(F)ccc43)C(C)C2)c(F)cc2c(=O)c(C(=O)O)cn(C3CC3)c12 (stereo not given),Activity,[6],106%
same,EC50,"[6]; Human immunodeficiency virus 1, 3B, MT4",12.1 µg/mL
same,MIC,[7],1.22 µg/mL
CC1CN(c2c(F)c(N)c3c(=O)c(C(=O)O)cn(C4CC4)c3c2F)CC(C)N1CN1C(=O)/C(=N\c2ccc(S(=O)(=O)Nc3ncccn3)cc2)c2ccccc21 (stereo not given),IC50,SW480,18.3 to 50 µg/mL
same,IC50,HeLa,18.3 to 50 µg/mL
same,IC50,A549,18.3 to 50 µg/mL
same,IC50,HepG2,18.3 to 50 µg/mL
CO/N=C1/C(=O)N(CCn2cc(CN3CCC[C@H]4CN(c5c(F)cc6c(=O)c(C(=O)O)cn(C7CC7)c6c5OC)C[C@H]43)nn2)c2ccccc21,MIC,[8],0.1 µg/mL
same,Ratio,[9],256
same,Ratio,[10],>1024
COc1ncnc(NS(=O)(=O)c2ccc(/N=C3\C(=O)N(CN4C(C)CN(c5c(F)c(N)c6c(=O)c(C(=O)O)cn(C7CC7)c6c5F)CC4C)c4ccccc43)cc2)c1OC (stereo not given),IC50,SW480,18.3 to 33.6 µg/mL
same,IC50,HeLa,18.3 to 33.6 µg/mL
same,IC50,A549,18.3 to 33.6 µg/mL
same,IC50,HepG2,18.3 to 33.6 µg/mL
CCn1cc(C(=O)O)c(=O)c2cc(F)c(N3CCN(CN4C(=O)/C(=N\NC(N)=S)c5cc(Cl)ccc54)CC3)cc21,EC50,[11],11.3 µg/mL
Cc1ccc2c(c1)C(=O)C(=O)N2CN1CCN(c2cc3c(cc2F)c(=O)c(C(=O)O)cn3C2CC2)CC1,MIC,Salmonella typhi,0.1 to 0.5 µg/mL
same,MIC,Escherichia coli [12],0.1 to 0.5 µg/mL
same,MIC,Vibrio cholerae,0.1 to 0.5 µg/mL
same,MIC,Staphylococcus aureus,0.1 to 0.5 µg/mL
same,MIC,[13],0.1 to 0.5 µg/mL
same,MIC,Klebsiella pneumoniae,0.1 to 0.5 µg/mL
same,MIC,Pseudomonas aeruginosa,0.1 to 0.5 µg/mL
same,MIC,Shigella flexneri,0.1 to 0.5 µg/mL
same,MIC,Citrobacter freundii,0.1 to 0.5 µg/mL
COc1cc(Cc2cnc(/N=C3\C(=O)N(CN4C(C)CN(c5c(F)c(N)c6c(=O)c(C(=O)O)cn(C7CC7)c6c5F)CC4C)c4ccccc43)nc2N)cc(OC)c1OC (stereo not given),IC50,SW480,18.3 to 50 µg/mL
same,IC50,HeLa,18.3 to 50 µg/mL
same,IC50,A549,18.3 to 50 µg/mL
same,IC50,HepG2,18.3 to 50 µg/mL
Cc1cc(C)nc(NS(=O)(=O)c2ccc(/N=C3\C(=O)N(CN4C(C)CN(c5c(F)c(N)c6c(=O)c(C(=O)O)cn(C7CC7)c6c5F)CC4C)c4ccccc43)cc2)n1 (stereo not given),IC50,SW480,18.3 to 50 µg/mL
same,IC50,HeLa,18.3 to 50 µg/mL
same,IC50,A549,18.3 to 50 µg/mL
same,IC50,HepG2,18.3 to 50 µg/mL
CCn1cc(C(=O)O)c(=O)c2cc(F)c(N3CCN(CN4C(=O)C(=O)c5ccccc54)C(C)C3)c(F)c21 (stereo not given),MIC,Salmonella typhi,0.25 to 2.5 µg/mL
same,MIC,Escherichia coli [12],0.25 to 2.5 µg/mL
same,MIC,Vibrio cholerae,0.25 to 2.5 µg/mL
same,MIC,Staphylococcus aureus,0.25 to 2.5 µg/mL
same,MIC,[13],0.25 to 2.5 µg/mL
same,MIC,Klebsiella pneumoniae,0.25 to 2.5 µg/mL
same,MIC,Pseudomonas aeruginosa,0.25 to 2.5 µg/mL
same,MIC,Shigella flexneri,0.25 to 2.5 µg/mL
same,MIC,Citrobacter freundii,0.25 to 2.5 µg/mL
O=C1C(=O)N(CN2CCN(c3cc4c(cc3F)c(=O)c(C(=O)O)cn4C3CC3)CC2)c2ccccc21,MIC,Salmonella typhi,0.1 to 0.5 µg/mL
same,MIC,Escherichia coli [12],0.1 to 0.5 µg/mL
same,MIC,Vibrio cholerae,0.1 to 0.5 µg/mL
same,MIC,Staphylococcus aureus,0.1 to 0.5 µg/mL
same,MIC,[13],0.1 to 0.5 µg/mL
same,MIC,Klebsiella pneumoniae,0.1 to 0.5 µg/mL
same,MIC,Pseudomonas aeruginosa,0.1 to 0.5 µg/mL
same,MIC,Shigella flexneri,0.1 to 0.5 µg/mL
same,MIC,Citrobacter freundii,0.1 to 0.5 µg/mL
CCn1cc(C(=O)O)c(=O)c2cc(F)c(N3CCN(CN4C(=O)C(=O)c5cc(C)ccc54)C(C)C3)c(F)c21 (stereo not given),MIC,Salmonella typhi,0.25 to 2.5 µg/mL
same,MIC,Escherichia coli [12],0.25 to 2.5 µg/mL
same,MIC,Vibrio cholerae,0.25 to 2.5 µg/mL
same,MIC,Staphylococcus aureus,0.25 to 2.5 µg/mL
same,MIC,[13],0.25 to 2.5 µg/mL
same,MIC,Klebsiella pneumoniae,0.25 to 2.5 µg/mL
same,MIC,Pseudomonas aeruginosa,0.25 to 2.5 µg/mL
same,MIC,Shigella flexneri,0.25 to 2.5 µg/mL
same,MIC,Citrobacter freundii,0.25 to 2.5 µg/mL
CO/N=C1/C(=O)N(CCn2cc(CN3CCC[C@H]4CN(c5c(F)cc6c(=O)c(C(=O)O)cn(C7CC7)c6c5OC)C[C@H]43)nn2)c2ccc(Br)cc21,MIC,[8],0.1 µg/mL
same,Ratio,[9],4
CCn1cc(C(=O)O)c(=O)c2cc(F)c(N3CCN(CN4C(=O)/C(=N\c5ccc(S(=O)(=O)Nc6ncccn6)cc5)c5ccccc54)CC3)cc21,ED50,Escherichia coli [4],1.25 mg/kg
same,Ratio,Escherichia coli [5],4.8
same,LD50 at 168 h,[14],> 4000 mg/kg
CO/N=C1/C(=O)N(CCCN2CCN(c3c(F)cc4c(=O)c(C(=O)O)cn(C5CC5)c4c3OC)CC2C)c2ccc(F)cc21 (stereo not given),MIC,[8],0.25 µg/mL
same,Ratio,[15],2
same,Ratio,[9],2
CCn1cc(C(=O)O)c(=O)c2cc(F)c(N3CCN(CN4C(=O)/C(=N\NC(N)=S)c5cc(Br)ccc54)CC3)cc21,EC50,[11],13.9 µg/mL
CC1CN(c2c(F)c(N)c3c(=O)c(C(=O)O)cn(C4CC4)c3c2F)CC(C)N1CN1C(=O)C(=O)c2ccccc21 (stereo not given),IC50,SW480,18.3 to 50 µg/mL
same,IC50,HeLa,18.3 to 50 µg/mL
same,IC50,A549,18.3 to 50 µg/mL
same,IC50,HepG2,18.3 to 50 µg/mL
O=C(O)c1cn(C2CC2)c2cc(N3CCNCC3)c(F)cc2c1=O [CIPROFLOXACIN],MIC,Salmonella typhi,0.1 to 2.5 µg/mL
same,MIC,Escherichia coli [12],0.1 to 2.5 µg/mL
same,MIC,Vibrio cholerae,0.1 to 2.5 µg/mL
same,MIC,Staphylococcus aureus,0.1 to 2.5 µg/mL
same,MIC,[13],0.1 to 2.5 µg/mL
same,MIC,Klebsiella pneumoniae,0.1 to 2.5 µg/mL
same,MIC,Pseudomonas aeruginosa,0.1 to 2.5 µg/mL
same,MIC,Shigella flexneri,0.1 to 2.5 µg/mL
same,MIC,Citrobacter freundii,0.1 to 2.5 µg/mL
same,MIC,[1],2 µg/mL
same,Activity,[2],6.82 log10CFU
same,Activity,[3],4.64 log10CFU
CCn1cc(C(=O)O)c(=O)c2cc(F)c(N3CCNC(C)C3)c(F)c21 (stereo not given) [LOMEFLOXACIN],MIC,Salmonella typhi,0.1 to 2.5 µg/mL
same,MIC,Escherichia coli [12],0.1 to 2.5 µg/mL
same,MIC,Vibrio cholerae,0.1 to 2.5 µg/mL
same,MIC,Staphylococcus aureus,0.1 to 2.5 µg/mL
same,MIC,[13],0.1 to 2.5 µg/mL
same,MIC,Klebsiella pneumoniae,0.1 to 2.5 µg/mL
same,MIC,Pseudomonas aeruginosa,0.1 to 2.5 µg/mL
same,MIC,Shigella flexneri,0.1 to 2.5 µg/mL
same,MIC,Citrobacter freundii,0.1 to 2.5 µg/mL
CCn1cc(C(=O)O)c(=O)c2cc(F)c(N3CCNCC3)cc21 [NORFLOXACIN],ED50,Escherichia coli [4],6 mg/kg
same,LD50 at 168 h,[14],4000 mg/kg
